In patent publication US20060078504A1, “Sustanined-release pharmaceutical composition for lung administration” (priority 2003, published 2006):

Assay: Test Example 1: serum theophylline pharmacokinetics after intratracheal administration of solutions A to D to rats
Format: in vivo, Wistar male rats
Conditions: solution A, intratracheal vs intravenous (femoral vein), rat, FIG. 1
Protocol: Wistar male rats (body weight about 220 g) fasted for about 18 hours were used as experimental animals. […] That is, the rats were anesthetized with pentobarbital (about 32 mg/kg) and secured on their back on animal boards, the tracheas were exposed through a longitudinal incision. A section of polyethylene tube (i.d. 1.5 mm, o.d. 2.3 mm) 2.5 cm in length was inserted through the tracheal incision for a distance of 0.6 cm between the forth and fifth tracheal rings caudal to the thyroid cartilage. Each of one hundred microliters of drug solutions A-D was drawn into a glass microsyringe, and then rat was maintained at an angle of 80°. The tip of syringe was inserted through the polyethylene tube to 1-2 mm above the bifurcation of the trachea. Then, the solution was injected over a period of 1-2 sec. About 45 sec after the administration, the rat was positioned at an angle of 10° and the incision in the skin was then closed with suture.
The theophylline concentrations in the obtained serum were measured by HPLC.

Cn1c(=O)c2[nH]cnc2n(C)c1=O [theophylline]
pulmonary absorption compared with intravenous administration (in words): as quick and effective as achieved by intravenous administration
